Results published in paper PMC7334220, “Diamond Blackfan anemia is mediated by hyperactive Nemo-like kinase” (Nature Communications, 2020).
Like-named read-outs stand apart in the source and are kept apart here.

Legend:
[1] = system: RPS19-insufficient Lin-Kit+ progenitors from mouse embryonic (E14.5–E15.5) fetal livers; test: c-Kit+ erythroid expansion rescue in murine RPS19-insufficient progenitors (Cell titer-Glo); assay type: cell-based; details: for rescue of c-Kit+ erythroid expansion: 10 µM, murine RPS19-insufficient model, Fig. 1b; for EC50: Mus musculus, read-out: EC50 of improved erythroid growth
Procedure: (§1) Cells were plated at 2000 cell per well in 96-well plates in the presence or absence of doxycycline. Relative amounts of live cells were quantified by luciferase-based Cell titer-Glo® assay. b TGFβR1 inhibitors were assessed for their ability to increase cell expansion in RPS19-insuffiency. As a control, vehicle alone (no doxycycline) is represented at the far left while all other samples were treated with doxycycline to induce RPS19-insufficiency. c Kit^+ erythroid progenitors were grown in the absence of doxycycline and in the presence of 10 µM of indicated compound. In addition, cells were treated with 5 ng/ml of TGFβ1 for 5 days before being subjected to Cell titer-Glo® assay. d Differentiating cord blood CD34^+ progenitors were transduced with shRNA against luciferase or RPS19 and treated with inhibitors at working concentrations for TGFβ inhibition every three days. […] Cells were counted and CD235^+ erythroid (i and iii) and CD11b^+ myeloid cell (ii and iv) percentages were determined by flow cytometry. The number of erythroid or myeloid cells is expressed as a percentage of the number of that lineage with no cytokine or drug treatment. Bars represent means ± SD with individual data points overlaid. n = 3 independent experiments performed in triplicate. Statistics: two-tailed Student’s t test, significant *p < 0.05. Also see Supplementary Fig. 1. Erythroid expansion is depicted in red while myeloid is in purple. Source data are provided as a Source Data file.
(1 picture or pasted object on this page, not shown here)

[2] = system: RPS19-insufficient cord blood CD34+ HSPCs; test: In vitro differentiation of cord blood CD34+ HSPCs transduced with shRNA against RPS19 (cell count and flow cytometry); as to erythroid expansion in RPS19-insufficiency, % of control: untreated 8.7%; assay type: cell-based, human; details: for increase of erythropoiesis in RPS19-insufficiency compared with control treated cells: CD235+ erythroid cells after 15 days, inhibitors at working concentrations for TGFβ inhibition every three days, Fig. 1d
Procedure: as §1
Cells were counted and assessed for cell surface expression of CD235. b Lin-Kit^+ hematopoietic progenitors were obtained from three mouse embryos expressing tetracycline-inducible shRNA against RPS19 at day E14.5 or three untreated mice, and thee mature RPL11^+/+ or three mature RPL11^+/lox mice treated with tamoxifen for eight weeks. […] Values were expressed as a percentage relative to untreated controls. c, d Intracellular phosphorylation of NLK at Thr298 was determined by capillary electrophoresis using the Peggy Sue™ Automated Western blotting platform. After lysis, 4 µg of protein from the CD235^+ population was probed against pThr298-NLK and normalized to GAPDH. […] After counting the total cell population, the ratio of CD235^+ erythroblasts was determined by flow cytometry and number of CD235^+ erythroblasts calculated. This was expressed as a percentage of the average number of erythroid cells present in untreated healthy controls. f NLK phosphorylation was assessed by capillary electrophoresis as above. Bars represent means ± SD with individual data points overlaid. […] Statistics: two-tailed Student’s t test, significant *p < 0.05. Also see Supplementary Fig. 8. Source data are provided as a Source Data file.
Primary human CD34^+ hematopoietic stem and progenitor cells were purified from cord or peripheral blood (New York Blood Center) or from human fetal liver tissue (Advanced Bioscience Resources and University of California, Los Angeles Center for AIDS Research) by using magnetic-activated cell sorting (Miltenyi Biotec) and were cryopreserved. Upon thawing, cells were cultured in x-Vivo15 media (Lonza) containing 10% fetal bovine serum, fms-related tyrosine kinase 3 (50 ng/ml), […] (50 ng/ml), interleukin-3 (IL-3; 20 ng/ml), interleukin-6 (IL-6; 20 ng/ml), and stem cell factor (50 ng/ml). When applied, TGFβ1 was added at 5 ng/ml. Kp53A1 cells were obtained from Javier Leon and cultured in DMEM supplemented with 10% fetal bovine serum at 37 or 32 °C.

SMILES: Fc1ccc(Cl)cc1-c1nc(Nc2ccncc2)c2nccnc2n1 [SD208]
- rescue of c-Kit+ erythroid expansion [1]: significantly rescued
- EC50 [1]: 700 nM
- erythroid expansion (CD235) in RPS19-insufficient HSPCs ([2]; 12 days, recommended concentrations, rebuttal Experiment 12): significantly increased
- increase of erythropoiesis in RPS19-insufficiency compared with control treated cells [2]: 6.3 fold
- improvement of erythropoiesis (comparison of SD208 with p38 inhibitors) ([2]; CD235+, 12 days, recommended concentrations, Supplementary Fig. 2b): improved erythropoiesis
- activity at 5 µM ([2]; Homo sapiens, 360 h, read-out: erythroid expansion in RPS19-insufficiency, % of control): 38.7%
- erythroid expansion, % of vehicle treated control cells ([2]; RPS19-insufficient cells, 5 µM, with or without TGFβ, Fig. 1e.iii): 428.6%
- RPS19-insufficient CD235+ erythroblast expansion, % of ribosome-competent controls ([2]; SD208 alone every three days, 15 days, untreated […], Fig. 2d.i): 40.3%
- RPS19-insufficient CD235+ erythroblast expansion, % of ribosome-competent controls, combined with siRNA against NLK ([2]; SD208 plus siNLK, 15 days, untreated […], Fig. 2d.i): 43.6%
- effect on differentiation of non-erythroid hematopoietic lineages ([2]; control or ribosome-insufficient cells): did not impact

SMILES: NC(=O)c1ccc(-c2nc(-c3ccc4c(c3)OCO4)c(-c3ccccn3)[nH]2)cc1 [SB431542]
- rescue of c-Kit+ erythroid expansion [1]: significantly rescued
- EC50 ([1]; murine RPS19-insufficient cells, Supplementary Fig. 1a): 5000 nM
- increase of erythropoiesis in RPS19-insufficiency compared with control treated cells [2]: 3.2 fold
